Several values for one entry are separate records, joined by “and”; a condition that tells them apart may be missing. Identical values can stand only once.
Key:
[1] = Experiment 1: hepatic portal vein samples of rats after oral Example Compound 35; assay type: in vivo, female Sprague-Dawley rats
Source text: It is believed that Example Compound 35 metabolizes in vivo into Parent Compound A (i.e., it is believed that Example Compound 35 is a prodrug of Parent Compound A). The objective of this study was to determine the concentration of Example Compound 35 and Parent Compound A in hepatic portal vein samples of female Sprague-Dawley rats following oral administration of only Example Compound 35, and to quantify the extent of transport into hepatic portal circulation, if any, of Example Compound 35. A second objective was to determine the relative bioavailability of Parent Compound A in the portal vein following oral administration of Example Compound 35.
Experiment 1. Three female Sprague Dawley rats (200-215 g, Harlan Laboratories, Indianapolis, Ind.) with cannulae implanted surgically in the portal vein for blood sampling were used in this study. Example Compound 35, formulated in 50 mM Glycine pH 3.0 with 0.5% HPMC and 0.05% Tween-80, was administered by oral gavage (PO) at a dose of 20 mg/kg in a volume of 2 mL/kg. This dose is the molar equivalent of a 13.5 mg/kg dose of Parent Compound A. Portal blood samples were collected through the portal vein cannula from each animal at 0.25, 0.5, 1, 2, 4, and 8 hours following administration of compound. Samples were split into two fractions and one was supplemented with citrate buffer (final concentration 100 mM, pH 3.0) to stabilize Example Compound 35 and stop conversion of Example Compound 35 to Parent Compound A ex vivo during analysis. Samples were then processed to generate plasma and analyzed for Example Compound 35 by LC-MS/MS. Plasma derived from the second aliquot of blood was analyzed for Parent Compound A.
Pharmacokinetic parameters estimated for Parent Compound A included the maximum observed drug concentration (Cmax), time of maximum observed drug concentration (Tmax), apparent terminal half-life (t1/2), area under the concentration-time curve from time zero to 8 hours postdose (AUC(0-8)), and area under the concentration-time curve extrapolated to infinity (AUC(0-inf)). The bioavailability (% F) of Parent Compound A in portal vein samples relative to IV administration was also estimated.
Plasma samples were analyzed for Example Compound 35 or Parent Compound A concentration using a LC-MS/MS method. All sample runs met standard acceptance criteria for discovery purposes, and were based on a standard curve containing at least 7 points. At least half of quality control samples at each of the three concentrations tested, and two thirds of the entire quality control sample pool, were within 15% of their theoretical value. The r^2 value for each standard curve was ≧0.99. The quantitation range for the Example Compound 35 and Parent Compound A assays was 1 to 100 ng/mL and 5 to 2,500 ng/mL, respectively, using a 0.05 mL sample volume.
The data were entered into the PK software package WinNonlin® version 5.1.1. A complete data check was conducted to verify the accuracy of data entry.
Pharmacokinetic parameters were estimated on median plasma concentrations using extravascular input (PO). Nominal collection times after administration of compound were used for PK analyses. The use of a non-compartmental model provided an adequate fit of the data. Pharmacokinetic parameters estimated for Parent Compound A included the maximum observed drug concentration (Cmax), time of maximum observed drug concentration (Tmax), apparent terminal half-life (t1/2), apparent volume of distribution (Vz obs), apparent clearance (C1 obs), area under the concentration-time curve from time zero to 8 hours postdose of Example Compound 35 […], and area under the concentration-time curve extrapolated to infinity (AUC(0-inf)). Example Compound 35 was detected in only one 0.25 hour hepatic portal vein sample at 1.29 ng/mL. Any Example Compound 35 present in all of the other samples was below the quantitation limit of 1 ng/mL and pharmacokinetic parameters were not determined for those samples. […]

[2] = system: HT1080 human fibrosarcoma cancer cells; experiment: Anti-tumor activity in HT1080 human fibrosarcoma xenograft with twice daily dosing; assay type: in vivo; settings: for MTV increase / tumor growth inhibition relative to vehicle: 6 mg/kg twice daily for 8 days; for MTV decrease / tumor regression: 12 mg/kg twice daily for 8 days
Method in brief: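 Female nude mice (Crl:NU-Fox1^nu) bearing s.c. flank tumors from 1 million HT1080 cells, randomized into cohorts of ten at median tumor volumes about 82–209 mm^3. Dosing twice daily for 7 days; tumor volumes and body weights tracked from Day 1 to Days 15–22.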

[3] = Stability in mouse plasma; assay type: in vitro ADME; settings: read-out: Mouse Plasma t1/2
Method: (§1) Relative stability of Example Compound Nos. 1 through 60 in mouse plasma and mouse liver microsomal preparations.
(§2) Certain Example Compounds were each added to a final concentration of 1 μM to 1 mL of each of mouse plasma and mouse liver microsomal preparations (with and without 1 mM NADPH). Stability assays were run in duplicate and were sampled at 0, 5, 15, 30, 60 and 120 minutes as follows: one hundred microliter aliquots of samples were removed at the specified sampling times, and the reaction was quenched with 400 μL of acetonitrile.
(§3) Samples were analyzed by HPLC-ESI-MS/MS by measuring the peak area of both the starting Example Compound and parent compound (i.e., either Parent Compound A or Parent Compound B) that were created by removal of the Prodrug Moiety (as defined in Section 6 herein).

[4] = Stability in mouse liver microsomal preparations; assay type: in vitro ADME; settings: liver microsomes, with and without 1 mM NADPH (not said which), read-out: Mouse Liver Microsomes t1/2
Method: as §1, §2, §3

[5] = female rats, orally at 20 mg/kg

With `O=C(NCc1ccc[n+](COC(=O)c2ccccc2)c1)Nc1ccc(OCCc2ccccc2-c2ccccc2)cc1` [Example 35, 1-[(Benzoyloxy)methyl]-3-{[({4-[2-(biphenyl-2-yl)ethoxy]phenyl}carbamoyl)amino]methyl} pyridinium] the “Conversion to Parent Compound A following oral administration” value [1, 5] was “rapidly converted”, the “Transport of Example Compound 35 into the hepatic portal vein” value [1, 5] was “not significantly transported” and the concentration at 1 h ([1]; female, Sprague-Dawley, rat, plasma (hepatic portal vein), po, 20 mg/kg, portal vein, 1 hr after oral Example Compound 35 20 mg/kg, individual rats, * = below the quantitation limit of 1 ng/mL, read-out: [Ex. Cmp. 35]) was 0.24 ng/mL. For the same compound, the concentration at 2 h ([1]; female, Sprague-Dawley, rat, plasma (hepatic portal vein), po, 20 mg/kg, portal vein, 2 hr after oral Example Compound 35 20 mg/kg, individual rats, * = below the quantitation limit of 1 ng/mL, read-out: [Ex. Cmp. 35]) was 0.15 ng/mL, the concentration at 4 h ([1]; female, Sprague-Dawley, rat, plasma (hepatic portal vein), po, 20 mg/kg, portal vein, 4 hr after oral Example Compound 35 20 mg/kg, individual rats, * = below the quantitation limit of 1 ng/mL, read-out: [Ex. Cmp. 35]) was 0.13 ng/mL and the “Example Compound 35 present in all of the other portal vein samples” value ([1]; oral 20 mg/kg, all samples other than one 0.25 hour sample, quantitation limit) was less than 1 ng/mL. For the same compound, the “[Ex. Cmp. 35]” value ([1]; portal vein, 0.25 hr after oral Example Compound 35 20 mg/kg, individual rats, * = below the quantitation limit of 1 ng/mL, 20 mg/kg) was 1.29 ng/mL, the “[Ex. Cmp. 35]” value ([1]; portal vein, 0.25 hr after oral Example Compound 35 20 mg/kg, individual rats, * = below the quantitation limit of 1 ng/mL, listed as Ex. Cmp. 35, 20 mg/kg) was 0.38* ng/mL and 1.3 ng/mL and 0.75* ng/mL and the “[Ex. Cmp. 35]” value ([1]; portal vein, 0.5 hr after oral Example Compound 35 20 mg/kg, individual rats, * = below the quantitation limit of 1 ng/mL, listed as Ex. Cmp. 35, 20 mg/kg) was 0.8* ng/mL and 0.32* ng/mL and 0.4* ng/mL. For the same compound, the “[Ex. Cmp. 35]” value ([1]; portal vein, 1 hr after oral Example Compound 35 20 mg/kg, individual rats, * = below the quantitation limit of 1 ng/mL, listed as Ex. Cmp. 35, 20 mg/kg) was 0.38* ng/mL and 0.29* ng/mL, the “[Ex. Cmp. 35]” value ([1]; portal vein, 2 hr after oral Example Compound 35 20 mg/kg, individual rats, * = below the quantitation limit of 1 ng/mL, listed as Ex. Cmp. 35, 20 mg/kg) was 0.3* ng/mL and No Peak and the “[Ex. Cmp. 35]” value ([1]; portal vein, 4 hr after oral Example Compound 35 20 mg/kg, individual rats, * = below the quantitation limit of 1 ng/mL, listed as Ex. Cmp. 35, 20 mg/kg) was “No Peak and 0.13* ng/mL”. For the same compound, the “[Ex. Cmp. 35]” value ([1]; portal vein, 8 hr after oral Example Compound 35 20 mg/kg, individual rats, * = below the quantitation limit of 1 ng/mL, listed as Ex. Cmp. 35, 20 mg/kg) was “No Peak and 0.16* ng/mL and 0.07* ng/mL”, the MTV increase ([2]; Day 9) was 31% and the “tumor growth inhibition relative to vehicle” value ([2]; Day 9) was 87%. The MTV increase ([2]; Day 21) was 2245%, the “tumor growth inhibition relative to vehicle” value ([2]; Day 21) was 78% and the MTV decrease ([2]; Day 9) was 81%. The tumor regression ([2]; Day 9) was 80%, the MTV decrease ([2]; Day 21) was 33% and the tumor regression ([2]; Day 21) was 33%. For the same compound, the “animals with no detectable tumors by the end of the study” value ([2]; Example Compound 35 study, 12 mg/kg, cohort of ten) was “Four”, the animals euthanized ([2]; Example Compound 35 study, 6 and 12 mg/kg) was “No animals” and the “anti-tumor activity in the HT1080 xenograft model (summary statement)” value ([2]; administered orally, twice daily, all doses tested) was “significant anti-tumor activity”. For the same compound, the “maximal reduction in median body weight” value ([2]; over the course of the study, all doses tested, orally twice daily) was < 15 % of the initial weight, the Tolerability ([2]; xenograft mice, all doses tested, orally twice daily) was “well tolerated” and the half-life at 1 µM [3] was 1.29 h. For the same compound, the half-life at 1 µM [4] was less than 5 min.
